PMC8222254, “Self-assembly of an anion receptor with metal-dependent kinase inhibition and potent in vitro anti-cancer properties” (Nature Communications, 2021)
“And” between values parts separate entries of the source, which are not always exact repeats. Equal entries are not always repeated.

Experiments:
Assay in all cases: Kinase inhibition screen, cell-free 33P ATP assay at 10 μM
Assay type in all cases: biochemical
[1] = target: 140 purified human kinases (Homo sapiens, UniProt P80192)
Experimental: (§1) [L2Cu3]^6+ and [L2Zn3]^6+ were submitted to the MRC Protein Phosphorylation and Ubiquitination Unit International Centre for Kinase Profiling (University of Dundee) and tested in duplicate (at 10 μM) against a series of 140 purified human kinases in a cell-free kinase assay using ^33P ATP[55],[56]. The kinase gene IDs from the screen were then translated into common IDs (HGNC symbol) using biomaRt package[57],[58] in R[59] and R Studio[60] and used as input to the KinMap programme.

[2] = target: T1, 140 purified human kinases (Homo sapiens, UniProt P52333)
T1 sequence (P52333 1-1124): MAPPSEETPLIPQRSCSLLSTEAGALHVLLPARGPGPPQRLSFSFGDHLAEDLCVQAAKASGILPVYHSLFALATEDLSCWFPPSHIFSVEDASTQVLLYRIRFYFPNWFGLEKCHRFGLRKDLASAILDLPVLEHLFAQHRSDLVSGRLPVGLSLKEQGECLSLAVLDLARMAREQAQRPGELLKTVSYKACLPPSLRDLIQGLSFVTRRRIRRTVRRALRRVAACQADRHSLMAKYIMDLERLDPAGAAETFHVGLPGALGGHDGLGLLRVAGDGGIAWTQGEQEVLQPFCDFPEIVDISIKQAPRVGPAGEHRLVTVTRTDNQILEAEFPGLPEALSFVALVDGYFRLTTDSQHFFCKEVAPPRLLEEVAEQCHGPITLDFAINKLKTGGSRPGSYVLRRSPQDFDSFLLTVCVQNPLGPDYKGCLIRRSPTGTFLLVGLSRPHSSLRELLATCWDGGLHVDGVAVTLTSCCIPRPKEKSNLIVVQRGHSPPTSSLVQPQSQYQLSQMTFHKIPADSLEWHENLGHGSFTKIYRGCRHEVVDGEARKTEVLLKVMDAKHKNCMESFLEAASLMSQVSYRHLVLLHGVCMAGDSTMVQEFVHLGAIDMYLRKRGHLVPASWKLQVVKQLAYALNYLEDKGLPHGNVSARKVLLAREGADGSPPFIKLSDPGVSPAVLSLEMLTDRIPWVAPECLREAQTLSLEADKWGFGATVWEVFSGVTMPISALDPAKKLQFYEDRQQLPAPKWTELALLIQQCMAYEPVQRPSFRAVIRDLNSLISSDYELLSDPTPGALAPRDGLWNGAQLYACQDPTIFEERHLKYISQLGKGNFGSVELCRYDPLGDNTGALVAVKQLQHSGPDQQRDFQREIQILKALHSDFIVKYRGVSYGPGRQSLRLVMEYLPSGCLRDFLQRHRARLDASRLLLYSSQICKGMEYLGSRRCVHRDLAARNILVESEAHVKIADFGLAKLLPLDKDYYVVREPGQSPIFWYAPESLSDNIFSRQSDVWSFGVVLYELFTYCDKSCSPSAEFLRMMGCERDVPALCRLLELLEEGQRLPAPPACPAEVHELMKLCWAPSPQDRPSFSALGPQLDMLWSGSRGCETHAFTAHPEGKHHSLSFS
Experimental: as §1

[3] = test system: 140 purified human kinases; conditions: PHK
Experimental: as §1

[4] = target: 140 purified human kinases (Homo sapiens, UniProt O96013)
Experimental: as §1

[5] = target: T2, 140 purified human kinases (Homo sapiens, UniProt Q8IW41); conditions: PRAK
T2 sequence (Q8IW41 1-473): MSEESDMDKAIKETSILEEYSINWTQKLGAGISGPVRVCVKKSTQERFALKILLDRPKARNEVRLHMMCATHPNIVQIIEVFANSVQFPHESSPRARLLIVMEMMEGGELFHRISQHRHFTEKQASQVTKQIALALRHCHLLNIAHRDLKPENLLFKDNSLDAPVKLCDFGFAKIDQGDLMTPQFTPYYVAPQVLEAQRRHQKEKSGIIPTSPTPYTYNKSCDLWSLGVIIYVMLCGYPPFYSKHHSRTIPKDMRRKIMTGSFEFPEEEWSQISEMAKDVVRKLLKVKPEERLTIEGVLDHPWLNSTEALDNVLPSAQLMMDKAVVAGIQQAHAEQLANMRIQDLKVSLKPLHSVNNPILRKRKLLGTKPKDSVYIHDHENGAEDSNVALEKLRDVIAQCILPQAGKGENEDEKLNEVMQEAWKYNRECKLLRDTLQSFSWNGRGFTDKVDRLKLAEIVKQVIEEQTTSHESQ
Experimental: as §1

[6] = target: 140 purified human kinases (Homo sapiens, UniProt P49137)
Experimental: as §1

[7] = target: T3, 140 purified human kinases (Homo sapiens, UniProt Q9BXA7)
T3 sequence (Q9BXA7 1-367): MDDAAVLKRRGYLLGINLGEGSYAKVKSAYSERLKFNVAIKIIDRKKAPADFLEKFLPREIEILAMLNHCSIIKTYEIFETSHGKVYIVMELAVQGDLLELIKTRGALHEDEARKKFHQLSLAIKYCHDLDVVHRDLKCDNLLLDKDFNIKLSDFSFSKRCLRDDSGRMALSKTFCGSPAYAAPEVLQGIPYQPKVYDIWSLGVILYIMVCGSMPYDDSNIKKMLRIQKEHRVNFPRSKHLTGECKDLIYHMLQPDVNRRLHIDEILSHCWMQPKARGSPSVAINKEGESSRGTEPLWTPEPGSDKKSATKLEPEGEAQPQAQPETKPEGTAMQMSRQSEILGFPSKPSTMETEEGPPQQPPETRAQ
Experimental: as §1

Sequence of 140 purified human kinases (Homo sapiens, UniProt P49137) (P49137 whole entry): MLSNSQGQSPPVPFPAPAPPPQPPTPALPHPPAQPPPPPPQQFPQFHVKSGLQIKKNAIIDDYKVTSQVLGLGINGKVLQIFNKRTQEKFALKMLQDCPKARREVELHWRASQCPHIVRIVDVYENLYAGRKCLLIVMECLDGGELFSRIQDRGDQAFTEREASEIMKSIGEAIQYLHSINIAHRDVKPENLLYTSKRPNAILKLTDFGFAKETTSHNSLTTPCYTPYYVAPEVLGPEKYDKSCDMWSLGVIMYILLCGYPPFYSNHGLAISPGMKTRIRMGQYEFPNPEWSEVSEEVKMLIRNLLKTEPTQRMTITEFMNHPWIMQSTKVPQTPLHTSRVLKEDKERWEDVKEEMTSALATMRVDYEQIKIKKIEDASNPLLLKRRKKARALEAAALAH
Sequence of 140 purified human kinases (Homo sapiens, UniProt P80192) (P80192 whole entry): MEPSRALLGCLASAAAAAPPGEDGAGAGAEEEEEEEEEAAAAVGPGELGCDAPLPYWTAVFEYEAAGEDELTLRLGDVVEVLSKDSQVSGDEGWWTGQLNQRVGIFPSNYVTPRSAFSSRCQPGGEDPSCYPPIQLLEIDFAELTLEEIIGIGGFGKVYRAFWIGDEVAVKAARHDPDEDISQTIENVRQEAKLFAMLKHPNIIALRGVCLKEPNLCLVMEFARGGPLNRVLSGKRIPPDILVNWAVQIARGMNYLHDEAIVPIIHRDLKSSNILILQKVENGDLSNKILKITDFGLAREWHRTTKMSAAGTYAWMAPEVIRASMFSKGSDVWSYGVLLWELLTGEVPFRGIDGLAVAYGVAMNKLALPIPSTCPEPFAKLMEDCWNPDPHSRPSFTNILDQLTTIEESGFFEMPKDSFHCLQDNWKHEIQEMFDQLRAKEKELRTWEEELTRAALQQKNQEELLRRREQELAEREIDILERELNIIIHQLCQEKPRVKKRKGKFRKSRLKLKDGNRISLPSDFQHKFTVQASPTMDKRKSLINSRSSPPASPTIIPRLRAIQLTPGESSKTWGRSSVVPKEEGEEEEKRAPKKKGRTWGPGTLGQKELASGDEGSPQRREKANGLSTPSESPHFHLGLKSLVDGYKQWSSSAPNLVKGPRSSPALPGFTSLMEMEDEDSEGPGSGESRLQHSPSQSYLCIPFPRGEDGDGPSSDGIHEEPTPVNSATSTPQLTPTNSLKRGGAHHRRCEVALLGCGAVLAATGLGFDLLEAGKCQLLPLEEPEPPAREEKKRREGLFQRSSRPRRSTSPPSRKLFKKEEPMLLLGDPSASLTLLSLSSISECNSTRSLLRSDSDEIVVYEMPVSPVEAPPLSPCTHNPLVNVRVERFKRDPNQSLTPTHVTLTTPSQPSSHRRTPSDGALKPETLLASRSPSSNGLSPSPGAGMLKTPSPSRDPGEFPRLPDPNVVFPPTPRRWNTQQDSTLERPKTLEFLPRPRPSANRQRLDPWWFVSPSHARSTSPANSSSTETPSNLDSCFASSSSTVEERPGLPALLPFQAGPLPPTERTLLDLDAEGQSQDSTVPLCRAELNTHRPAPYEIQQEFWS
Sequence of 140 purified human kinases (Homo sapiens, UniProt O96013) (O96013 whole entry): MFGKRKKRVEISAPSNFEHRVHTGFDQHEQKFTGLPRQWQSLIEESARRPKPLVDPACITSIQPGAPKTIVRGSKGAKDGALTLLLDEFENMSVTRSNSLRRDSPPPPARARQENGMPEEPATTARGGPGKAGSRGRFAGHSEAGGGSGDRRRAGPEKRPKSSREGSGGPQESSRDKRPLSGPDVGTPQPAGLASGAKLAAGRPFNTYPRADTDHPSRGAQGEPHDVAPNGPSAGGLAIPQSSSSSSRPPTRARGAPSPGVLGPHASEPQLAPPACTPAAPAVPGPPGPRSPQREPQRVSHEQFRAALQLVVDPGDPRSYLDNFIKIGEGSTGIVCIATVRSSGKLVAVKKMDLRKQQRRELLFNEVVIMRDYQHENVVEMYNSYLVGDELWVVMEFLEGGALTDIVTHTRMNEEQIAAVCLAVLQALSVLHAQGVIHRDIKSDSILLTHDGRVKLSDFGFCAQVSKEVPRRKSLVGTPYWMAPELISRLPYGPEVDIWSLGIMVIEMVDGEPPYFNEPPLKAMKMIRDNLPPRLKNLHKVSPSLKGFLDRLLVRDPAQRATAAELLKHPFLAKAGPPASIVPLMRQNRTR

Which results are given for `[Cu+2].[Cu+2].[Cu+2].c1ccc(-c2csc(NCCN(CCNc3nc(-c4ccccn4)cs3)CCNc3nc(-c4ccccn4)cs3)n2)nc1.c1ccc(-c2csc(NCCN(CCNc3nc(-c4ccccn4)cs3)CCNc3nc(-c4ccccn4)cs3)n2)nc1` [[L2Cu3]6+]?
% Inhibition Run 1 ([1]; MLK1): 83.6%; % Inhibition Run 2 ([1]; MLK1): 85.4%; % Inhibition, Mean ([1]; MLK1): 85%; mean % activity ([1]; MLK1): 16%; % activity ([1]; MLK1, Run 1): 16.4%; % activity ([1]; MLK1, Run 2): 14.6%; % Inhibition Run 1 ([2]; JAK3): 39.3%; % Inhibition Run 2 ([2]; JAK3): 44.6%; % Inhibition, Mean ([2]; JAK3): 42%; mean % activity ([2]; JAK3): 58%; % activity ([2]; JAK3, Run 1): 60.7%; % activity ([2]; JAK3, Run 2): 55.4%; % activity ([3]; Run 1): 40.1%; % activity ([3]; Run 2): 50.7%; % Inhibition Run 1 ([4]; PAK4): 23.3%; % Inhibition Run 2 ([4]; PAK4): 36.6%; % Inhibition, Mean ([4]; PAK4): 30%; mean % activity ([4]; PAK4): 70%; % activity ([4]; PAK4, Run 1): 76.7%; % activity ([4]; PAK4, Run 2): 63.4%; % Inhibition Run 1 [5]: 79.7%; % Inhibition Run 2 [5]: 79.1%; % Inhibition, Mean [5]: 79%; mean % activity [5]: 21%; % activity ([5]; Run 1): 20.3%; % activity ([5]; Run 2): 20.9%; % Inhibition Run 1 ([6]; MAPKAP-K2): 97.8%; % Inhibition Run 2 ([6]; MAPKAP-K2): 98.1%; % Inhibition, Mean ([6]; MAPKAP-K2): 98%; mean % activity ([6]; MAPKAP-K2): 2%; % activity ([6]; MAPKAP-K2, Run 1): 2.2%; % activity ([6]; MAPKAP-K2, Run 2): 1.9%; % Activity inhibition Mean ([6]; MAPKAP-K2, 10 µM): 97.9%; % Activity inhibition Run 1 ([6]; MAPKAP-K2, 10 µM): 97.8%; % Activity inhibition Run 2 ([6]; MAPKAP-K2, 10 µM): 98.1%; % Activity remaining Run 1 ([6]; MAPKAP-K2, 10 µM): 2.20%; % Activity remaining Run 2 ([6]; MAPKAP-K2, 10 µM): 1.90%; % Inhibition Run 1 ([7]; TSSK1): 44%; % Inhibition Run 2 ([7]; TSSK1): 46.8%; % Inhibition, Mean ([7]; TSSK1): 45%; mean % activity ([7]; TSSK1): 55%; % activity ([7]; TSSK1, Run 1): 56%; % activity ([7]; TSSK1, Run 2): 53.2%

What does the source list for `CC(=O)[O-].CC(=O)[O-].CC(=O)[O-].CC(=O)[O-].CC(=O)[O-].CC(=O)[O-].[Zn+2].[Zn+2].[Zn+2].c1ccc(-c2csc(NCCN(CCNc3nc(-c4ccccn4)cs3)CCNc3nc(-c4ccccn4)cs3)n2)nc1.c1ccc(-c2csc(NCCN(CCNc3nc(-c4ccccn4)cs3)CCNc3nc(-c4ccccn4)cs3)n2)nc1` [[L2Zn3]6+]?
% Inhibition, Mean ([1]; MLK1): 11%; mean % activity ([1]; MLK1): 89%; % activity ([1]; MLK1, duplicate runs): 83% and 96%; % Inhibition, Mean ([2]; JAK3): 17%; mean % activity ([2]; JAK3): 83%; % activity ([2]; JAK3, duplicate runs): 66% and 99%; % Inhibition, Run 1 / Run 2 [3]: 68% and 61%; % Activation, Mean value ([4]; PAK4): 20%; % Inhibition, Mean ([4]; PAK4): -20%; mean % activity ([4]; PAK4): 120%; % Activity Run 1 ([4]; PAK4, 10 µM): 110.0%; % Activity Run 2 ([4]; PAK4, 10 µM): 130.0%; % activity ([4]; PAK4, duplicate runs): 110% and 130%; % Inhibition, Mean [5]: 81%; % Inhibition, Run 1 / Run 2 [5]: 83% and 79%; mean % activity [5]: 19%; % Activity inhibition Mean ([5]; 10 µM): 81.0%; % Activity inhibition Run 1 ([5]; 10 µM): 83%; % Activity inhibition Run 2 ([5]; 10 µM): 79%; % Activity remaining Run 1 ([5]; 10 µM): 17%; % Activity remaining Run 2 ([5]; 10 µM): 21%; % activity ([5]; duplicate runs): 17% and 21%; % Inhibition, Mean ([6]; MAPKAP-K2): 41%; % Inhibition, Run 1 / Run 2 ([6]; MAPKAP-K2): 47% and 35%; mean % activity ([6]; MAPKAP-K2): 60%; % activity ([6]; MAPKAP-K2, duplicate runs): 54% and 66%; % Inhibition, Mean ([7]; TSSK1): 27%; % Inhibition, Run 1 / Run 2 ([7]; TSSK1): 29% and 24%; mean % activity ([7]; TSSK1): 73%; % activity ([7]; TSSK1, duplicate runs): 71% and 76%
